Where no end group is shown, it is not given here.
Tested on: U-87 cells
Test: U-87 cell migration on hyaluronic acid
Assay type: cell-based
Details: 300 ug/ml, 48 hrs pretreatment; HA-coated filters, 2 hours
Procedure: The biological activity of a desired polypeptide may further be determined using migration assays. U-87 cells are treated with a polypeptide of the present invention (e.g., any PCK3145 derivative, fragment, analog, such as for example, any one of or combinations of SEQ ID NOs.: 9 to 98). The treated cells are trypsinised, counted, and seeded on HA-coated filters inserted in modified Boyden Chambers as described herein or in the art. Cell migration is allowed to proceed for 2 hours at 37° C. Filters are then stained for cells that have migrated through the filter. A decreased basal U-87 cell migration observed in cells treated with a polypeptide of the present invention is indicative of a biologically active polypeptide (i.e., a biologically active PCK3145 derivative, fragment, analog).
Migration/invasion of cancer cells is a key event in tumor metastasis. In vitro, this process can be reconstituted by plating cells onto ECM-coated filters inserted in modified Boyden chemotactic chambers. The effect of the PCK3145 derivative can be monitored by the number of cells that had migrated comparatively to untreated control cells. […] U-87 cells were treated with the PCK3145 derivative (300 ug/ml, 48 hrs), trypsinised, counted, and seeded on HA-coated filters inserted in modified Boyden Chambers. […]

EWQTDNCETCTCYET (cysteine pairing not given here) [PCK3145 derivative, PCK3145 derivative with acetylaminomethyl groups on the three cysteines]
decrease of basal U-87 cell migration: approximately 3 fold
